Results from ChEMBL document CHEMBL4406902, “Structure-based analysis and biological characterization of imatinib derivatives reveal insights towards the inhibition of wild-type BCR-ABL and its mutants” (Bioorg Med Chem Lett, 2019).

How the values were obtained:
[1] = Inhibition of BCR/Abl P190 mutant (unknown origin) transfected in mouse Ba/F3 cells assessed as inhibition of cell proliferation measured after 72 hrs by CellTiter-Glo luminescent cell viability assay; assay type: cell-based; conditions: BaF3, 72 h
[2] = Inhibition of BCR/Abl P230 mutant (unknown origin) transfected in mouse Ba/F3 cells assessed as inhibition of cell proliferation measured after 72 hrs by CellTiter-Glo luminescent cell viability assay; assay type: cell-based; conditions: BaF3, 72 h

Structure (SMILES) | IC50 [1] [nM] | IC50 [2] [nM]
Cc1ncc(NC(=O)c2ccc(CN3CCN(C)CC3)c(C(F)(F)F)c2)cc1Nc1nccc(-c2cccnc2)n1 [FLUMATINIB] | 13.3 | 10.3
Cc1ccc(NC(=O)c2ccc(CN3CCN(C)CC3)cc2)cc1Nc1nccc(-c2cccnc2)n1 [IMATINIB] | 346 | 222
Cc1cn(-c2cc(NC(=O)c3ccc(C)c(Nc4nccc(-c5cccnc5)n4)c3)cc(C(F)(F)F)c2)cn1 [NILOTINIB] | 23.2 | 19
